According to paper PMC5199340, “RET Functions as a Dual-Specificity Kinase that Requires Allosteric Inputs from Juxtamembrane Elements” (Cell Reports, 2016):

How the values were obtained:
RET [1] = target: T1, RET (Homo sapiens, UniProt P07949); assay: isothermal titration calorimetry (ITC); type: binding
T1 construct: RET JM-KD (residues 661–1012)
T1 sequence (P07949 661-1012): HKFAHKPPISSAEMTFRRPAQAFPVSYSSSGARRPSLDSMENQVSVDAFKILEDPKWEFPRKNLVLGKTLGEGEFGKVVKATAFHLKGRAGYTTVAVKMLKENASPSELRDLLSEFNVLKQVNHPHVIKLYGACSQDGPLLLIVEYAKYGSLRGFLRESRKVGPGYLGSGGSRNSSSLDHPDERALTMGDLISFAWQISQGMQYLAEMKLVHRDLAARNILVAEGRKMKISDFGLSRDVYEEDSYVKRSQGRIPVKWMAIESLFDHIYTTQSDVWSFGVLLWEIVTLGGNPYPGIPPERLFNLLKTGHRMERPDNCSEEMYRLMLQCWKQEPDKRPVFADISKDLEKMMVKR

RET [2] = target: T2, RET (Homo sapiens, UniProt P07949); assay: X-ray crystal structures ([…] Å and […] Å); type: binding
T2 construct: RET JM-KD (residues 659–1013), phosphorylated (Y809, Y905, S909, Y928)
T2 sequence (P07949 659-1013): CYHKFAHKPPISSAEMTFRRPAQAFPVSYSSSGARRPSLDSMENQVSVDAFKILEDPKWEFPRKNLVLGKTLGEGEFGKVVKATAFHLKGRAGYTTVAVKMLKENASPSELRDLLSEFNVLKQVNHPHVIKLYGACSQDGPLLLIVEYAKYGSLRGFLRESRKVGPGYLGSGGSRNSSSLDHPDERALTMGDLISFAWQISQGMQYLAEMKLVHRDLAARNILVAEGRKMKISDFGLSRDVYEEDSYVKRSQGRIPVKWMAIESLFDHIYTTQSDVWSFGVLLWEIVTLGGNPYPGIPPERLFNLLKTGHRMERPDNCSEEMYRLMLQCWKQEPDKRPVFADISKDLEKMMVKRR

| Compound | Kd (RET [1]) [µM] | X-ray crystal structures (2.95 Å and 3.3 Å) (RET [2]) |
| --- | --- | --- |
| Nc1ncnc2c1ncn2[C@@H]1O[C@H](COP(=O)(O)OP(=O)(O)OP(=O)(O)O)[C@@H](O)[C@H]1O [ATP] | 37.5 ± 3.1 |  |
| Cc1ccc(-c2nn(C(C)(C)C)c3ncnc(N)c23)cc1 [PP1] |  | Both crystal structures contained the PP1 tyrosine kinase inhibitor in the nucleotide-binding pocket |
